The target of one assay is T1, human GPR52 (Homo sapiens, UniProt Q9Y2T5).
T1 construct: expressed in transfected cells; host or cells: CHO(dhfr-) cells
The assay is described as follows: Increase of intracellular cAMP concentration in human GPR52-expressing CHO cell (AlphaScreen cAMP assay). The class given is cell-based. Conditions: human GPR52-expressing CHO(dhfr-) cells; for activity at 1 µM: CHO, 1µM test compound, 100% = cAMP with 1 µM Reference Example 79, 0% = DMSO, 37°C, 30 min, read-out: GPR52 agonist activity (%); for EC50: concentration of the test compound at which it shows 50% activity, read-out: GPR52 agonist activity EC50. The gist of the method:
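1×10^4 GPR52-expressing CHO(dhfr-) cells incubated 30 min at 37 °C with compound (10^-5 µM–10 µM) in HBSS, 0.5% BSA, 100 µM IBMX, 100 µM Ro20-1724, 5 mM HEPES pH 7.55; cAMP read by AlphaScreen. Agonism normalized to 1 µM reference agonist (100%) and DMSO (0%).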
A general note: Alpha assays give light when donor and acceptor beads are brought close together.

Assay [1] relates to methamphetamine-induced locomotor hyperactivity in mice. The assay is described as follows: Inhibition test of methamphetamine-induced locomotor hyperactivity. Conditions: test compound 10 mg/kg body weight orally, male ICR mice; methamphetamine 2 mg/kg s.c. 60 min later; locomotor activity counted over 150 min, versus vehicle group. The class given is in vivo. The procedure:
Inhibition test of methamphetamine-induced locomotor hyperactivity
The compound of the present invention can be evaluated by assessing its capacity to inhibit methamphetamine-induced locomotor hyperactivity in mice. The method of Okuyama et al (Life Science, Vol. 65, p. 2109-2125 (1999)) was modified and used for testing the inhibition of methamphetamine-induced locomotor hyperactivity.
Locomotor activity was measured using a 32-channel locomotor activity measurement device MDC-LT (BrainScience Idea Co., Ltd.), which emits infrared beams from the top of a cage (30 x 40 x 20 cm). 6- to 8-Week-old male ICR mice were acclimated for at least 45 min in the measurement cages, and then either test compound (10 mg/kg body weight) dissolved in vehicle (0.5% aqueous methylcellulose solution) or the vehicle alone was orally administered. This oral administration was followed 60 min later by subcutaneous administration of methamphetamine (2 mg/kg body weight).
The number of times the laboratory animals passed through the infrared beams emitted inside the measurement cages in 150 min after administration of the test compound or vehicle was counted to quantify locomotor activity. The methamphetamine-induced locomotor hyperactivity inhibition rate (activity inhibition rate (%)) was calculated by the following equation. Activity inhibition rate (%) = {1-(locomotor activity of test compound treatment group after treatment with methamphetamine÷locomotor activity of vehicle treatment group after treatment with methamphetamine)}x 100 [formula] The results are shown in Table 3

Structures are written as SMILES.

T1 sequence (Q9Y2T5 whole entry): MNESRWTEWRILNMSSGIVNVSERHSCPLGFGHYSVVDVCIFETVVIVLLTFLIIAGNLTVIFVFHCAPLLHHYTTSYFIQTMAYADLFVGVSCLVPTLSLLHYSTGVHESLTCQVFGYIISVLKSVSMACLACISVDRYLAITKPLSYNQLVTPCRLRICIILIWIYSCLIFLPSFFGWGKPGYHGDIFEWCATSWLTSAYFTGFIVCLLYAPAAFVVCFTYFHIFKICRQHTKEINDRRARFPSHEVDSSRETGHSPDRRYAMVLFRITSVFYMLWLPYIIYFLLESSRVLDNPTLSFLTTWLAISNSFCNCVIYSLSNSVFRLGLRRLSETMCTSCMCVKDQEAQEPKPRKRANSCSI

The EC50 is the concentration at which the effect is half-maximal. As to `COCCNC(=O)c1cn(-c2cccc3cc(Cc4cccc(C(F)(F)F)c4)sc23)nc1C` [Example 14, N-(2-methoxyethyl)-3-methyl-1-[2-[3-(trifluoromethyl)benzyl]-1-benzothiophen-7-yl]-1H-pyrazole-4-carboxamide], at human GPR52, the activity at 1 µM turned out to be 87% and the EC50 turned out to be 14 nM. For the same compound, the “Activity inhibition rate (%)” value in assay [1] was found to be 53%. With `Cc1nn(-c2cccc3cc(Cc4cccc(C(F)(F)F)c4)sc23)cc1C(=O)NCCO` [Example 15, N-(2-hydroxyethyl)-3-methyl-1-[2-[3-(trifluoromethyl)benzyl]-1-benzothiophen-7-yl]-1H-pyrazole-4-carboxamide], at human GPR52, the activity at 1 µM worked out at 102% and the EC50 came to 5.7 nM. Besides, the “Activity inhibition rate (%)” value in assay [1] is listed as 48%. For the compound `Cc1nn(-c2cccc3cc(Cc4cccc(C(F)(F)F)c4)sc23)cc1C(N)=O` [Example 17, 3-methyl-1-[2-[3-(trifluoromethyl)benzyl]-1-benzothiophen-7-yl]-1H-pyrazole-4-carboxamide], at human GPR52, the activity at 1 µM was determined as 96% and the EC50 is 11 nM. For the same compound, the “Activity inhibition rate (%)” value in assay [1] amounted to 43%. In the same order, the values of `Cc1nn(-c2ccc(F)c3cc(Cc4cccc(C(F)(F)F)c4)sc23)c(C)c1C(=O)NCC(N)=O` [Example 58, N-(2-amino-2-oxoethyl)-1-[4-fluoro-2-[3-(trifluoromethyl)benzyl]-1-benzothiophen-7-yl]-3,5-dimethyl-1H-pyrazole-4-carboxamide] are 92%, 40 nM and 47%. For `Cc1nn(-c2cccc3cc(Cc4cccc(C(F)(F)F)c4)sc23)c(CO)c1C(=O)NCCO` [Example 65, N-(2-hydroxyethyl)-5-(hydroxymethyl)-3-methyl-1-[2-[3-(trifluoromethyl)benzyl]-1-benzothiophen-7-yl]-1H-pyrazole-4-carboxamide], on human GPR52, the activity at 1 µM amounted to 99%. In assay [1], the “Activity inhibition rate (%)” value is on record as 51%. For the compound `Cc1nn(-c2cccc3sc(Cc4cccc(C(F)(F)F)c4)cc23)c(C)c1C(=O)NCCO` [Example 106, N-(2-hydroxyethyl)-3,5-dimethyl-1-[2-[3-(trifluoromethyl)benzyl]-1-benzothiophen-4-yl]-1H-pyrazole-4-carboxamide], the activity at 1 µM at human GPR52 is 97%. For `Cc1nn(-c2cccc3sc(Cc4cc(F)cc(Cl)c4)cc23)c(C)c1C(=O)NCC(N)=O` [Example 107, N-(2-amino-2-oxoethyl)-1-[2-(3-chloro-5-fluorobenzyl)-1-benzothiophen-4-yl]-3,5-dimethyl-1H-pyrazole-4-carboxamide], on human GPR52, the activity at 1 µM amounted to 100%. On to `Cc1nn(-c2cccc3sc(Cc4cc(F)cc(Cl)c4)cc23)c(C)c1C(=O)NCCO` [Example 108, 1-[2-(3-chloro-5-fluorobenzyl)-1-benzothiophen-4-yl]-N-(2-hydroxyethyl)-3,5-dimethyl-1H-pyrazole-4-carboxamide], for which the activity at 1 µM on human GPR52 amounted to 93%.

For the compound `Cc1nn(-c2cccc3sc(Cc4cc(F)cc(Cl)c4)cc23)c(C)c1C(N)=O` [Example 109, 1-[2-(3-chloro-5-fluorobenzyl)-1-benzothiophen-4-yl]-3,5-dimethyl-1H-pyrazole-4-carboxamide], at human GPR52, the activity at 1 µM stood at 89%. The same measure, in the same setting: for `Cn1nc(-c2cccc3cc(Cc4cccc(C(F)(F)F)c4)sc23)cc1C(=O)NCC(N)=O` [Example 110, N-(2-amino-2-oxoethyl)-1-methyl-3-[2-[3-(trifluoromethyl)benzyl]-1-benzothiophen-7-yl]-1H-pyrazole-5-carboxamide] the value was 94%.

Regarding `Cn1nc(-c2cccc3cc(Cc4cccc(C(F)(F)F)c4)sc23)cc1C(=O)NCCO` [Example 111, N-(2-hydroxyethyl)-1-methyl-3-[2-[3-(trifluoromethyl)benzyl]-1-benzathiophen-7-yl]-1H-pyrazole-5-carboxamide], at human GPR52, the activity at 1 µM amounted to 89% and the EC50 came to 38 nM.

The values above are taken from patent publication EP2518054A1, “AMIDE COMPOUND” (Takeda Pharmaceutical Company Limited, priority 2009, dated 2011).
